{"source": "patent US20220112479A1", "about": "“COMPOUNDS STABILIZING AMYLASES IN LIQUIDS” (BASF SE, priority 2018, published 2022)", "assay_type_in_all_cases": "biochemical", "key": {"[1]": {"system": "Amy3=Stainzyme Plus L (12L)", "experiment": "amylase storage stability in liquid formulation (pNP release from Ethyliden-blocked-pNPG7)", "settings": "base formulation II., 1.5 wt % component (a), storage at 37° C.", "procedure,_shortened": "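Liquid formulations with amylase (as active protein) stored at 37 °C and sampled at intervals. Activity measured as pNP release (405 nm) from ethylidene-blocked pNPG7 with excess α-glucosidase, Termamyl standard; expressed relative to reference formulation at time 0.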"}, "Amy2=Amplify": {"system": "Amy2=Amplify", "experiment": "amylase storage stability in liquid formulation (pNP release from Ethyliden-blocked-pNPG7)", "design": "key: % of activity in reference formulation at time 0", "settings": "storage at 37° C.", "procedure,_shortened": "(§1)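 Amylase (dosed as active protein) was stored at 37 °C in liquid base formulations with or without test or comparative compounds. Activity at set time points was measured as pNP release (A405) from blocked-pNPG7 with excess α-glucosidase, expressed relative to the reference formulation at time 0.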"}, "Amy1=Stainzyme": {"system": "Amy1=Stainzyme", "experiment": "amylase storage stability in liquid formulation (pNP release from Ethyliden-blocked-pNPG7)", "design": "key: % of activity in reference formulation at time 0", "settings": "base formulation I., 1.5 wt % component (a), storage at 37° C.", "procedure,_shortened": "as §1"}, "Amylase": {"system": "Amylase", "experiment": "amylase storage stability in liquid laundry formulation (pNP release from Ethyliden-blocked-pNPG7)", "design": "key: % of activity in reference formulation at time 0", "settings": "2.5 wt % component (a), storage at 37° C.", "procedure,_shortened": "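Amylase stored in liquid laundry base formulations at 37° C, activity sampled over time. Activity measured as pNP release (A405) from ethylidene-blocked pNPG7 with excess α-glucosidase; values expressed relative to the reference formulation at time 0.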"}}, "data": [{"smiles": "CCCOC(=O)CC(O)(CC(=O)OCCC)C(=O)OCCC", "note": "[A.2, Tripropylcitrate]", "values": [{"measurement": "amylase activity, referring to reference formulation at time 0", "setting": "[1]; 3 d", "result": 100}, {"measurement": "amylase activity, referring to reference formulation at time 0", "setting": "[1]; 7 d", "result": 97}, {"measurement": "amylase activity, referring to reference formulation at time 0", "setting": "[1]; 14 d", "result": 93}, {"measurement": "amylase activity, referring to reference formulation at time 0", "setting": "[1]; 21 d", "result": 87}, {"measurement": "amylase activity, referring to reference formulation at time 0", "setting": "[1]; 28 d", "result": 83}, {"measurement": "amylase activity, referring to reference formulation at time 0", "setting": "[1]; 42 d", "result": 69}, {"measurement": "amylase activity, referring to reference formulation at time 0", "setting": "[1]; T0", "result": 102}, {"measurement": "amylase activity, referring to reference formulation at time 0", "setting": "Amy2=Amplify; base formulation III., 1.5 wt % component (a), 3 d", "result": 102}, {"measurement": "amylase activity, referring to reference formulation at time 0", "setting": "Amy2=Amplify; base formulation III., 1.5 wt % component (a), 7 d", "result": 97}, {"measurement": "amylase activity, referring to reference formulation at time 0", "setting": "Amy2=Amplify; base formulation III., 1.5 wt % component (a), 14 d", "result": 93}, {"measurement": "amylase activity, referring to reference formulation at time 0", "setting": "Amy2=Amplify; base formulation III., 1.5 wt % component (a), 21 d", "result": 87}, {"measurement": "amylase activity, referring to reference formulation at time 0", "setting": "Amy2=Amplify; base formulation III., 1.5 wt % component (a), 28 d", "result": 81}, {"measurement": "amylase activity, referring to reference formulation at time 0", "setting": "Amy2=Amplify; base formulation III., 1.5 wt % component (a), 42 d", "result": 71}, {"measurement": "amylase activity, referring to reference formulation at time 0", "setting": "Amy2=Amplify; base formulation III., 1.5 wt % component (a), T0", "result": 100}, {"measurement": "amylase activity, referring to reference formulation at time 0", "setting": "Amy2=Amplify; base formulation V., 2.0 wt % component (a), 3 d", "result": 95}, {"measurement": "amylase activity, referring to reference formulation at time 0", "setting": "Amy2=Amplify; base formulation V., 2.0 wt % component (a), 7 d", "result": 90}, {"measurement": "amylase activity, referring to reference formulation at time 0", "setting": "Amy2=Amplify; base formulation V., 2.0 wt % component (a), 14 d", "result": 84}, {"measurement": "amylase activity, referring to reference formulation at time 0", "setting": "Amy2=Amplify; base formulation V., 2.0 wt % component (a), 21 d", "result": 76}, {"measurement": "amylase activity, referring to reference formulation at time 0", "setting": "Amy2=Amplify; base formulation V., 2.0 wt % component (a), 28 d", "result": 66}, {"measurement": "amylase activity, referring to reference formulation at time 0", "setting": "Amy2=Amplify; base formulation V., 2.0 wt % component (a), 42 d", "result": 54}, {"measurement": "amylase activity, referring to reference formulation at time 0", "setting": "Amy2=Amplify; base formulation V., 2.0 wt % component (a), T0", "result": 98}, {"measurement": "amylase activity, referring to reference formulation at time 0", "setting": "Amy1=Stainzyme; 3 d", "result": 100}, {"measurement": "amylase activity, referring to reference formulation at time 0", "setting": "Amy1=Stainzyme; 7 d", "result": 96}, {"measurement": "amylase activity, referring to reference formulation at time 0", "setting": "Amy1=Stainzyme; 14 d", "result": 90}, {"measurement": "amylase activity, referring to reference formulation at time 0", "setting": "Amy1=Stainzyme; 21 d", "result": 84}, {"measurement": "amylase activity, referring to reference formulation at time 0", "setting": "Amy1=Stainzyme; 28 d", "result": 79}, {"measurement": "amylase activity, referring to reference formulation at time 0", "setting": "Amy1=Stainzyme; 42 d", "result": 66}, {"measurement": "amylase activity, referring to reference formulation at time 0", "setting": "Amy1=Stainzyme; T0", "result": 101}, {"measurement": "amylase activity, referring to reference formulation at time 0", "setting": "Amylase; laundry base formulation IX. (2.5 DTPA), 3 d", "result": 93}, {"measurement": "amylase activity, referring to reference formulation at time 0", "setting": "Amylase; laundry base formulation IX. (2.5 DTPA), 7 d", "result": 85}, {"measurement": "amylase activity, referring to reference formulation at time 0", "setting": "Amylase; laundry base formulation IX. (2.5 DTPA), 14 d", "result": 81}, {"measurement": "amylase activity, referring to reference formulation at time 0", "setting": "Amylase; laundry base formulation IX. (2.5 DTPA), 21 d", "result": 72}, {"measurement": "amylase activity, referring to reference formulation at time 0", "setting": "Amylase; laundry base formulation IX. (2.5 DTPA), 28 d", "result": 63}, {"measurement": "amylase activity, referring to reference formulation at time 0", "setting": "Amylase; laundry base formulation IX. (2.5 DTPA), T0", "result": 100}, {"measurement": "amylase activity, referring to reference formulation at time 0", "setting": "Amylase; laundry base formulation VI. (2.0 EDTA), 3 d", "result": 94}, {"measurement": "amylase activity, referring to reference formulation at time 0", "setting": "Amylase; laundry base formulation VI. (2.0 EDTA), 7 d", "result": 86}, {"measurement": "amylase activity, referring to reference formulation at time 0", "setting": "Amylase; laundry base formulation VI. (2.0 EDTA), 14 d", "result": 80}, {"measurement": "amylase activity, referring to reference formulation at time 0", "setting": "Amylase; laundry base formulation VI. (2.0 EDTA), 21 d", "result": 74}, {"measurement": "amylase activity, referring to reference formulation at time 0", "setting": "Amylase; laundry base formulation VI. (2.0 EDTA), 28 d", "result": 65}, {"measurement": "amylase activity, referring to reference formulation at time 0", "setting": "Amylase; laundry base formulation VI. (2.0 EDTA), T0", "result": 101}, {"measurement": "amylase activity, referring to reference formulation at time 0", "setting": "Amylase; laundry base formulation VIII. (2.5 DTPA, no Savinase), 3 d", "result": 94}, {"measurement": "amylase activity, referring to reference formulation at time 0", "setting": "Amylase; laundry base formulation VIII. (2.5 DTPA, no Savinase), 7 d", "result": 87}, {"measurement": "amylase activity, referring to reference formulation at time 0", "setting": "Amylase; laundry base formulation VIII. (2.5 DTPA, no Savinase), 14 d", "result": 83}, {"measurement": "amylase activity, referring to reference formulation at time 0", "setting": "Amylase; laundry base formulation VIII. (2.5 DTPA, no Savinase), 21 d", "result": 77}, {"measurement": "amylase activity, referring to reference formulation at time 0", "setting": "Amylase; laundry base formulation VIII. (2.5 DTPA, no Savinase), 28 d", "result": 69}, {"measurement": "amylase activity, referring to reference formulation at time 0", "setting": "Amylase; laundry base formulation VIII. (2.5 DTPA, no Savinase), T0", "result": 99}]}]}
